Where two headings read alike, the source gives them in different places.
Key:
[1] = tested on: HCV replicon 1A; experiment: Cell-based HCV Replicon Assay A, replicon 1A
Method in brief: (§1)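 Three-day exposure of replicon cells (2000/well) to serially diluted compound, 0.5% DMSO, 5% serum. RNA per cell was derived as (Ct − intercept)/slope from replicon total RNA standards, with cyclophilin amplified in the same reaction.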

[2] = tested on: HCV replicon 1AY93H; experiment: Cell-based HCV Replicon Assay A, replicon 1AY93H
Method in brief: as §1

[3] = tested on: HCV replicon 2B; experiment: Cell-based HCV Replicon Assay A, replicon 2B
Method in brief: as §1

[4] = read-out: 1A Y93H IC50, replicon 1AY93H
[5] = Hepatitis C virus, read-out: 1A Y93H IC50 (nM), replicon 1AY93H
[6] = Hepatitis C virus, read-out: 2B IC50 (nM), replicon 2B
[7] = replicon 1AY93H, read-out: 1A Y93H IC50

| Compound | IC50 ([1]; Hepatitis C virus) [nM] | IC50 [2, 4] [nM] | IC50 ([3]; read-out: 2B IC50, replicon 2B) [nM] | IC50 [1] [nM] | IC50 [2, 5] [nM] | IC50 [3, 6] [nM] | IC50 [2, 7] [nM] | IC50 ([3]; replicon 2B, read-out: 2B IC50) [nM] |
| --- | --- | --- | --- | --- | --- | --- | --- | --- |
| CCCc1ncc(C2Oc3cc(-c4cnc([C@@H]5CCCN5C(=O)[C@@H](NC(=O)OC)C(C)C)[nH]4)cc(C)c3-c3cc4cc(-c5cnc([C@@H]6C[C@H]7C[C@H]7N6C(=O)[C@@H](NC(=O)OC)C(C)C)[nH]5)ccc4n32)s1 (single isomer, unassigned) [Compound 205] | 0.006 | 2.46 | 0.57 | – | – | – | – | – |
| COC(=O)N[C@H](C(=O)N1CCC[C@H]1c1ncc(-c2cc(C)c3c(c2)OC(c2cnc(C4CC4)s2)n2c-3cc3cc(-c4cnc([C@@H]5C[C@H]6C[C@H]6N5C(=O)[C@@H](NC(=O)OC)C(C)(C)F)[nH]4)ccc32)[nH]1)C(C)C (single isomer, unassigned) [Compound 209] | – | 0.197 | 0.155 | 0.003 | – | – | – | – |
| COC(=O)NC(C(=O)N1CCC[C@H]1c1ncc(-c2ccc3c(c2)cc2n3C(c3cnc(C4CC4)s3)Oc3cc(-c4cnc([C@@H]5CCCN5C(=O)[C@@H](NC(=O)OC)C(C)C)[nH]4)cc(C)c3-2)[nH]1)C1C[C@@H](C)O[C@@H](C)C1 (single isomer, unassigned) [Compound 215] | 0.0024 | – | – | – | 0.828 | 0.09 | – | – |
| COC(=O)NC(C(=O)N1CCC[C@H]1c1ncc(-c2ccc3c(c2)cc2n3C(c3cnc(C4CCC4)s3)Oc3cc(-c4cnc([C@@H]5CCCN5C(=O)[C@@H](NC(=O)OC)C(C)C)[nH]4)cc(C)c3-2)[nH]1)C1C[C@@H](C)O[C@@H](C)C1 (single isomer, unassigned) [Compound 218] | 0.002 | 0.12 | 0.035 | – | – | – | – | – |
| COC(=O)NC(C(=O)N1[C@@H]2C[C@@H]2C[C@H]1c1ncc(-c2ccc3c(c2)cc2n3C(c3cnc(C4CCC4)s3)Oc3cc(-c4cnc([C@@H]5CCCN5C(=O)[C@@H](NC(=O)OC)C(C)C)[nH]4)cc(C)c3-2)[nH]1)C(C)(C)F (single isomer, unassigned) [Compound 224] | 0.0027 | – | – | – | 0.462 | 0.204 | – | – |
| COC(=O)NC(C(=O)N1CCC[C@H]1c1ncc(-c2ccc3c(c2)cc2n3C(c3cnc(C4CC4)s3)Oc3cc(-c4cnc([C@@H]5CCCN5C(=O)[C@@H](NC(=O)OC)C(C)C)[nH]4)cc(F)c3-2)[nH]1)C1C[C@@H](C)O[C@@H](C)C1 (single isomer, unassigned) [Compound 306] | 0.003 | 0.244 | 0.145 | – | – | – | – | – |
| COC(=O)NC(C(=O)N1[C@@H]2C[C@@H]2C[C@H]1c1ncc(-c2ccc3c(c2)cc2n3C(c3cnc(C(C)(C)C)s3)Oc3cc(-c4cnc([C@@H]5CCCN5C(=O)[C@@H](NC(=O)OC)C(C)C)[nH]4)cc(F)c3-2)[nH]1)C(C)C (single isomer, unassigned) [Compound 323] | 0.0032 | 0.0051 | 0.078 | – | – | – | – | – |
| COC(=O)NC(C(=O)N1[C@@H]2C[C@@H]2C[C@H]1c1ncc(-c2ccc3c(c2)cc2n3C(c3cnc(C(C)(C)C)s3)Oc3cc(-c4cnc([C@@H]5CCCN5C(=O)[C@@H](NC(=O)OC)C(C)C)[nH]4)cc(F)c3-2)[nH]1)C(C)C (single isomer, unassigned) [Compound 324] | – | 0.263 | 1.67 | 0.002 | – | – | – | – |
| COC(=O)NC(C(=O)N1[C@@H]2C[C@@H]2C[C@H]1c1ncc(-c2ccc3c(c2)cc2n3C(c3cnc(C4CCCC4)s3)Oc3cc(-c4cnc([C@@H]5CCCN5C(=O)[C@@H](NC(=O)OC)C(C)C)[nH]4)cc(F)c3-2)[nH]1)C(C)(C)F (single isomer, unassigned) [Compound 327] | 0.0012 | 0.002 | 0.011 | – | – | – | – | – |
| COC(=O)NC(C(=O)N1[C@@H]2C[C@@H]2C[C@H]1c1ncc(-c2ccc3c(c2)cc2n3C(c3cnc(C4CCCC4)s3)Oc3cc(-c4cnc([C@@H]5CCCN5C(=O)[C@@H](NC(=O)OC)C(C)C)[nH]4)cc(F)c3-2)[nH]1)C(C)(C)F (single isomer, unassigned) [Compound 328] | – | 0.0463 | 0.163 | 0.0015 | – | – | – | – |
| COC(=O)N[C@H](C(=O)N1CCC[C@H]1c1ncc(-c2cc(F)c3c(c2)OC(c2nc4ccccc4s2)n2c-3cc3cc(-c4cnc([C@@H]5CCCN5C(=O)[C@@H](NC(=O)OC)C(C)C)[nH]4)ccc32)[nH]1)C(C)C (single isomer, unassigned) [Compound 401] | 0.0085 | – | 0.634 | – | 0.346 | – | – | – |
| COC(=O)N[C@H](C(=O)N1CCC[C@H]1c1ncc(-c2cc(F)c3c(c2)OC(c2cnc(-c4ccccn4)s2)n2c-3cc3cc(-c4cnc([C@@H]5CCCN5C(=O)[C@@H](NC(=O)OC)C(C)C)[nH]4)ccc32)[nH]1)C(C)C (single isomer, unassigned) [Compound 406] | 0.003 | – | – | – | 0.0034 | 0.005 | – | – |
| COC(=O)N[C@H](C(=O)N1CCC[C@H]1c1ncc(-c2cc(F)c3c(c2)OC(c2cnc(-c4ccc(C)o4)s2)n2c-3cc3cc(-c4cnc([C@@H]5CCCN5C(=O)[C@@H](NC(=O)OC)C(C)C)[nH]4)ccc32)[nH]1)C(C)C (single isomer, unassigned) [Compound 413] | 0.0036 | – | 0.173 | – | 0.0196 | – | – | – |
| COC(=O)N[C@H](C(=O)N1CCC[C@H]1c1ncc(-c2cc(F)c3c(c2)OC(c2nc(C(F)(F)F)cs2)n2c-3cc3cc(-c4cnc([C@@H]5CCCN5C(=O)[C@@H](NC(=O)OC)C(C)C)[nH]4)ccc32)[nH]1)C(C)C (single isomer, unassigned) [Compound 419] | – | 17.9 | – | 0.0041 | – | 6.47 | – | – |
| COC(=O)N[C@H](C(=O)N1CCC[C@H]1c1ncc(-c2cc(F)c3c(c2)OC(c2nc(C(F)(F)F)cs2)n2c-3cc3cc(-c4cnc([C@@H]5CCCN5C(=O)[C@@H](NC(=O)OC)C(C)C)[nH]4)ccc32)[nH]1)C(C)C (single isomer, unassigned) [Compound 420] | – | 1.87 | 5.56 | 0.0101 | – | – | – | – |
| CCC(CC)c1ncc(C2Oc3cc(-c4cnc([C@@H]5CCCN5C(=O)[C@@H](NC(=O)OC)C(C)C)[nH]4)cc(F)c3-c3cc4cc(-c5cnc([C@@H]6CCCN6C(=O)[C@@H](NC(=O)OC)C(C)C)[nH]5)ccc4n32)s1 (single isomer, unassigned) [Compound 421] | – | – | – | 0.0037 | 0.014 | 0.103 | – | – |
| COC(=O)N[C@H](C(=O)N1CCC[C@H]1c1ncc(-c2cc(F)c3c(c2)OC(c2cscn2)n2c-3cc3cc(-c4cnc([C@@H]5CCCN5C(=O)[C@@H](NC(=O)OC)C(C)C)[nH]4)ccc32)[nH]1)C(C)C (single isomer, unassigned) [Compound 430] | – | 19.5 | 7.1 | 0.006 | – | – | – | – |
| COC(=O)N[C@H](C(=O)N1CCC[C@H]1c1ncc(-c2cc(F)c3c(c2)OC(c2cscn2)n2c-3cc3cc(-c4cnc([C@@H]5CCCN5C(=O)[C@@H](NC(=O)OC)C(C)C)[nH]4)ccc32)[nH]1)C(C)C (single isomer, unassigned) [Compound 431] | – | 0.56 | 3.1 | 0.033 | – | – | – | – |
| COC(=O)NC(C(=O)N1[C@@H]2C[C@@H]2C[C@H]1c1ncc(-c2ccc3c(c2)cc2n3C(c3cnc(CC(C)C)s3)Oc3cc(-c4cnc([C@@H]5CCCN5C(=O)[C@@H](NC(=O)OC)C(C)C)[nH]4)cc(F)c3-2)[nH]1)C1CCOC(C)(C)C1 (single isomer, unassigned) [Compound 436] | – | – | – | 0.0011 | – | – | 0.126 | 0.318 |
| CCCc1ncc(C2Oc3cc(-c4cnc([C@@H]5CCCN5C(=O)[C@@H](NC(=O)OC)C(C)C)[nH]4)cc(C)c3-c3cc4cc(-c5cnc([C@@H]6CCCN6C(=O)C(NC(=O)OC)C(C)(C)F)[nH]5)ccc4n32)s1 (single isomer, unassigned) [Compound 486] | 0.0041 | – | – | – | 0.342 | 0.031 | – | – |
| COC(=O)N[C@H](C(=O)N1CCC[C@H]1c1ncc(-c2cc(F)c3c(c2)OC(c2nc4c(s2)CCC4)n2c-3cc3cc(-c4cnc([C@@H]5CCCN5C(=O)[C@@H](NC(=O)OC)C(C)C)[nH]4)ccc32)[nH]1)C(C)C (single isomer, unassigned) [Compound 505] | – | 0.152 | 0.22 | 0.0015 | – | – | – | – |
| COC(=O)N[C@H](C(=O)N1CCC[C@H]1c1ncc(-c2cc(F)c3c(c2)OC(c2cnc(CC4CC4)s2)n2c-3cc3cc(-c4cnc([C@@H]5CCCN5C(=O)[C@@H](NC(=O)OC)C(C)C)[nH]4)ccc32)[nH]1)C(C)C (single isomer, unassigned) [Compound 510] | – | – | – | 0.001 | – | – | 0.629 | 0.624 |
| COC(=O)N[C@H](C(=O)N1CCC[C@H]1c1ncc(-c2cc(F)c3c(c2)OC(c2cnc(C4CCCCC4)s2)n2c-3cc3cc(-c4cnc([C@@H]5CCCN5C(=O)[C@@H](NC(=O)OC)C(C)C)[nH]4)ccc32)[nH]1)C(C)C (single isomer, unassigned) [Compound 528] | – | 1.15 | 0.727 | 0.0014 | – | – | – | – |
| COC(=O)NC(C(=O)N1CCC[C@H]1c1ncc(-c2ccc3c(c2)cc2n3C(c3nc4c(s3)CCC4)Oc3cc(-c4cnc([C@@H]5CCCN5C(=O)[C@@H](NC(=O)OC)C(C)C)[nH]4)cc(F)c3-2)[nH]1)C1CCOC(C)(C)C1 (single isomer, unassigned) [Compound 537] | 0.0019 | – | – | – | 3.33 | 0.198 | – | – |
| COC(=O)NC(C(=O)N1CCC[C@H]1c1ncc(-c2ccc3c(c2)cc2n3C(c3cnc(CC4CC4)s3)Oc3cc(-c4cnc([C@@H]5CCCN5C(=O)[C@@H](NC(=O)OC)C(C)C)[nH]4)cc(F)c3-2)[nH]1)C1CCOC(C)(C)C1 (single isomer, unassigned) [Compound 538] | – | – | – | 0.0012 | – | – | 0.579 | 0.117 |
| COC(=O)NC(C(=O)N1CCC[C@H]1c1ncc(-c2ccc3c(c2)cc2n3C(c3cnc(CC(C)C)s3)Oc3cc(-c4cnc([C@@H]5CCCN5C(=O)[C@@H](NC(=O)OC)C(C)C)[nH]4)cc(F)c3-2)[nH]1)C1CCOC(C)(C)C1 (single isomer, unassigned) [Compound 542] | – | 0.495 | 0.124 | 0.0014 | – | – | – | – |

Reference: US9555038B2, “Heterocycle-substituted tetracyclic compounds and methods of use thereof for the treatment of viral diseases” (Merck Sharp & Dohme Corp., priority 2013, dated 2017)
